# Test results from article PMC9061857, “A fluorogenic probe for granzyme B enables in-biopsy evaluation and screening of response to anticancer immunotherapies” (Nature Communications, 2022).
# Where no end group is shown, it is not given here.
# How the values were obtained:
# SCC cancer cells = assay: Ex vivo flow cytometry of wild-type SCC and SCC FAK (−/−) tumors; type: cell-based, mouse; settings: for Fluorescence intensity of H5 inside SCC cancer cells (525 nm) / Freq cancer cells (GzmB-positive SCC cancer cells by H5 staining): H5 5 μM, 30 min; for Mean fluorescence intensity after incubation with probe H5: SCC (-/-) tumor digests
# Protocol: P-values from two-tailed t-tests using Welch correction. Source data (c–f) provided as a Source Data file.
# All animal work was carried out in compliance with UK Home Office guidelines. SCC tumors were established and labeled for flow cytometry as previously described. Briefly, 1 × 10^6 SCC cancer cells (obtained from Dr Alan Serrels at The University of Edinburgh) were injected subcutaneously into FVB/N mice (n = 4 for both WT and FAK (−/−) groups, Sex: female, Age: 10–14 weeks, obtained from Harlan UK), which were sacrificed 14 days post-implantation and tumors disaggregated to generate a single-cell suspension. […] Data analysis was performed using FlowJo V10 software. […]
# and SCC7.1 FAK-/- tumors. All cells were gated on singlets and live cells (Zombie NIR viability dye, 1:1000 dilution). Wild-type SCC and SCC FAK-/- were gated as CD45− CD140a− (AF700 & BV650, respectively). All non-cancerous and non-fibrotic cells were gated on CD45+ (AF700). Monocytes were gated on CD11b+ (PerCP-Cy5.5) whilst the remaining cells were classified as CD8+ T cells (PE), CD4+ T cells (eFluor450) or immune cells (CD4−CD8− or CD4+CD8+).
# (§1) (1 picture or pasted object on this page, not shown here)
# [1] = system: EpCAM+ epithelial cells from lung cancer patients; assay: Flow cytometry of paired tumor and non-tumor lung tissue; type: cell-based, human; settings: H5 5 μM, 30 min r.t.
# Protocol: Tissue samples of tumor and paired non-tumor (n = 5 for both conditions) lungs were taken from treatment-naïve patients undergoing surgical resection. Participants provided written informed consent and the study was approved by NHS Lothian REC and facilitated by NHS Lothian SAHSC Bioresource (REC No: 15/ES/0094). Fresh samples were minced, incubated with 1 mg mL^−1 collagenase IV, 1 mg mL^−1 DNase 1, 50 U mL^−1 hyaluronidase in DMEM for 1 h at 37 °C with agitation, and passed through 100 and 70 µm filters followed by red cell lysis. […] Cells were washed twice in PBS 2% fetal calf serum (FCS) prior to collection. For microscopy, formalin-fixed paraffin-embedded slides of non-small cell lung cancer and paired non-cancerous lung were deparaffinized, rehydrated, stained with hematoxylin and eosin, followed by dehydration and imaging on a Zeiss AxioScan microscope.
# Supplementary Figure 17. Gating strategy for assessing the probe H5 in human lung tissue. All cells were gated to exclude debris and gated on singlets. Leukocytes were excluded on the basis of CD45 positivity, and live EpCAM positive cells were selected by excluding cells stained positive with the Zombie UV viability dye (1:1000 dilution). Probe H5 positivity in the live EpCAM+ population in non-tumor and tumor tissues was assessed against cells stained in the absence of prob e H5 giving a background of <1% positivity.
# as §1
# recombinant mouse GzmB = assay: Reactivity against recombinant mouse GzmB (fluorescence); type: biochemical; settings: 25 μM, 90 min, 37 °C
# Protocol: and H5m (both at 25 μM) after incubation for 90 min at 37 °C with recombinant mouse
# pro-GzmB (100 nM) after pre-activation with mouse cathepsin C (5.5 μg mL-1) for 4 h.
# Excitation/emission wavelengths: 450 nm /510 nm. Data presented as mean values±SEM
# (3 independent experiments with 3 technical replicates). Source data provided as a […]
# human GzmB (hGzmB) = molecular target: T1, human GzmB (hGzmB) (Homo sapiens, UniProt P10144); assay: HPLC conversion of fluorogenic peptides by hGzmB; type: biochemical
# T1 construct: For active GzmB vs pro-GzmB, p < 0.0001
# Protocol: Supplementary Figure 1. Reactivity of fluorogenic substrates against human GzmB and limits of detection. a) Reaction conversion rates (by HPLC-UV detection at 350 nm) for Ac-IEPD-AMC (50 μM) in TRIS buffer (see Methods) at 37 °C containing different concentrations of hGzmB. Data presented as mean values±SEM (n=3 independent biological experiments). b) Reaction conversion rates (by HPLC-UV detection at 500 nm) for the tetrapeptide T1 (25 μM) in TRIS buffer at 37 °C containing different concentrations of hGzmB. Data presented as mean values±SEM (3 independent biological experiments).
# Source data provided as a Source Data file.
# as §1
# Supplementary Table 1. Chemical structures and reactivity of FRET-based tetrapeptides against human GzmB.
# Code Structure Linker Quencher HPLC conversion HPLC conversion […]
# Supplementary Table 2. Sequences and reactivity of FRET-based hexapeptides against […]
# Code Peptide sequence HPLC conversion
# H1 Ile-Glu-Pro-Asp-Ala-Gly 75%
# H2 Ile-Glu-Pro-Asp-Ser-Gly 80%
# H3 Ile-Glu-Pro-Asp-Ser-Leu 80%
# H4 Ile-Glu-Pro-Asp-Trp-Leu 82%
# H6 Ile-Glu-Pro-Asp-Trp-Arg 40%
# H7 Ile-Glu-Pro-Asp-Arg-Leu 60%
# H5m Ile-Glu-Phe-Asp-Ala-Leu 70%
# T1 sequence (P10144 21-247): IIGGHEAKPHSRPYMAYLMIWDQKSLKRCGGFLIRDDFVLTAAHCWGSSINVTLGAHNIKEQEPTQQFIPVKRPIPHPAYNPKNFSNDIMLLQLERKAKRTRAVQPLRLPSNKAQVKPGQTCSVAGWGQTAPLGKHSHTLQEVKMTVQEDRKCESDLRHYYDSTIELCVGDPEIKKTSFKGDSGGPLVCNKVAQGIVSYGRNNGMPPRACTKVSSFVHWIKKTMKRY
substance,measurement,setting,value
"IEPDAL [H5, FRET hexapeptide IEPDAL with BODIPY-FL fluorophore at the N-terminal end and Dabcyl quencher]",Fluorescence intensity of H5 inside SCC cancer cells (525 nm),"SCC cancer cells; SCC FAK tumor, Data 1",17211
same,Freq cancer cells (GzmB-positive SCC cancer cells by H5 staining),"SCC cancer cells; SCC FAK tumor, Data 1",19%
same,Fluorescence intensity of H5 inside SCC cancer cells (525 nm),"SCC cancer cells; SCC FAK tumor, Data 2",15125
same,Freq cancer cells (GzmB-positive SCC cancer cells by H5 staining),"SCC cancer cells; SCC FAK tumor, Data 2",45%
same,Fluorescence intensity of H5 inside SCC cancer cells (525 nm),"SCC cancer cells; SCC FAK tumor, Data 3",14692
same,Freq cancer cells (GzmB-positive SCC cancer cells by H5 staining),"SCC cancer cells; SCC FAK tumor, Data 3",38%
same,Fluorescence intensity of H5 inside SCC cancer cells (525 nm),"SCC cancer cells; SCC FAK tumor, Data 4",14334
same,Freq cancer cells (GzmB-positive SCC cancer cells by H5 staining),"SCC cancer cells; SCC FAK tumor, Data 4",41%
same,Fluorescence intensity of H5 inside SCC cancer cells (525 nm),"SCC cancer cells; SCC tumor, Data 1",5564
same,Freq cancer cells (GzmB-positive SCC cancer cells by H5 staining),"SCC cancer cells; SCC tumor, Data 1",6%
same,Fluorescence intensity of H5 inside SCC cancer cells (525 nm),"SCC cancer cells; SCC tumor, Data 2",6027
same,Freq cancer cells (GzmB-positive SCC cancer cells by H5 staining),"SCC cancer cells; SCC tumor, Data 2",4.5%
same,Fluorescence intensity of H5 inside SCC cancer cells (525 nm),"SCC cancer cells; SCC tumor, Data 3",5635
same,Freq cancer cells (GzmB-positive SCC cancer cells by H5 staining),"SCC cancer cells; SCC tumor, Data 3",2.78%
same,Fluorescence intensity of H5 inside SCC cancer cells (525 nm),"SCC cancer cells; SCC tumor, Data 4",5745
same,Freq cancer cells (GzmB-positive SCC cancer cells by H5 staining),"SCC cancer cells; SCC tumor, Data 4",3.77%
same,Mean fluorescence intensity after incubation with probe H5,"SCC cancer cells; CD4 T cells, Data 1",3345
same,Mean fluorescence intensity after incubation with probe H5,"SCC cancer cells; CD4 T cells, Data 2",2508
same,Mean fluorescence intensity after incubation with probe H5,"SCC cancer cells; CD8 T cells, Data 1",3289
same,Mean fluorescence intensity after incubation with probe H5,"SCC cancer cells; CD8 T cells, Data 2",2980
same,Mean fluorescence intensity after incubation with probe H5,"SCC cancer cells; cancer cells, Data 1",11273
same,Mean fluorescence intensity after incubation with probe H5,"SCC cancer cells; cancer cells, Data 2",13796
same,Mean fluorescence intensity after incubation with probe H5,"SCC cancer cells; immune cells (CD8-CD4-CD11b-), Data 1",3435
same,Mean fluorescence intensity after incubation with probe H5,"SCC cancer cells; immune cells (CD8-CD4-CD11b-), Data 2",2496
same,Mean fluorescence intensity after incubation with probe H5,"SCC cancer cells; monocytes / macrophages, Data 1",2362
same,Mean fluorescence intensity after incubation with probe H5,"SCC cancer cells; monocytes / macrophages, Data 2",2247
same,cancer cells labeled with probe H5,"SCC cancer cells; SCC FAK (−/−) tumors, H5 30 min",over 40%
same,percentage of EpCAM+ H5+ epithelial cells,"[1]; Healthy (non-tumor) tissue, Data 1",10.4%
same,percentage of EpCAM+ H5+ epithelial cells,"[1]; Healthy (non-tumor) tissue, Data 2",9.7%
same,percentage of EpCAM+ H5+ epithelial cells,"[1]; Healthy (non-tumor) tissue, Data 3",11.0%
same,percentage of EpCAM+ H5+ epithelial cells,"[1]; Healthy (non-tumor) tissue, Data 4",6.6%
same,percentage of EpCAM+ H5+ epithelial cells,"[1]; Healthy (non-tumor) tissue, Data 5",10.4%
same,percentage of EpCAM+ H5+ epithelial cells,"[1]; Tumor tissue, Data 1",19.4%
same,percentage of EpCAM+ H5+ epithelial cells,"[1]; Tumor tissue, Data 2",19.1%
same,percentage of EpCAM+ H5+ epithelial cells,"[1]; Tumor tissue, Data 3",21.3%
same,percentage of EpCAM+ H5+ epithelial cells,"[1]; Tumor tissue, Data 4",18.6%
same,percentage of EpCAM+ H5+ epithelial cells,"[1]; Tumor tissue, Data 5",36.0%
same,response to mouse GzmB,recombinant mouse GzmB,good response
same,time to complete cleavage,human GzmB (hGzmB); 20 nM hGzmB,less than 30 min
same,"HPLC conversion (20 nM hGzmB, 2 h)","human GzmB (hGzmB); probe 25 μM (Ac-IEPD-AMC 50 μM), TRIS buffer, 37 °C, HPLC-UV",100%
